Experimental data published in PubChem BioAssay AID1963833 (Molecular Pharmacology Branch, DTP, NCI, 2024).

Tested on: 883617-216-R-J1-PDC complex spheroid viability
Assay: Anticancer human tumor 883617-216-R-J1-PDC patient-derived bladder carcinoma cell line growth inhibition [POLQ]
Conditions: for IC50: curve of first compound; for viability, T/C: stronger effect = lower value
How it was run: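 Patient-derived tumour cells were co-cultured with HUVEC and mesenchymal stem cells as multicellular spheroids at 37 °C. They were treated with POLQ inhibitors (novobiocin, ART-558, RP6685) alone or combined with other agents. Top concentrations were at or near clinical Cmax (otherwise 10 microM; SN-38 at 1 microM), decreasing in half-log steps.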

[1] = second compound 0.0316 µM, first compound 0.00316 µM
[2] = second compound 0.0316 µM, first compound 0.01 µM
[3] = second compound 0.0316 µM, first compound 0.0316 µM
[4] = second compound 0.0316 µM, first compound 0.1 µM
[5] = second compound 0.0316 µM, first compound 0.316 µM
[6] = second compound 0.0316 µM, first compound 1 µM
[7] = second compound 0.1 µM, first compound 0.00316 µM
[8] = second compound 0.1 µM, first compound 0.01 µM
[9] = second compound 0.1 µM, first compound 0.0316 µM
[10] = second compound 0.1 µM, first compound 0.1 µM
[11] = second compound 0.1 µM, first compound 0.316 µM
[12] = second compound 0.1 µM, first compound 1 µM
[13] = second compound 0.316 µM, first compound 0.00316 µM
[14] = second compound 0.316 µM, first compound 0.01 µM
[15] = second compound 0.316 µM, first compound 0.0316 µM
[16] = second compound 0.316 µM, first compound 0.1 µM
[17] = second compound 0.316 µM, first compound 0.316 µM
[18] = second compound 0.316 µM, first compound 1 µM
[19] = second compound 1 µM, first compound 0.00316 µM
[20] = second compound 1 µM, first compound 0.01 µM
[21] = second compound 1 µM, first compound 0.0316 µM
[22] = second compound 1 µM, first compound 0.1 µM
[23] = second compound 1 µM, first compound 0.316 µM
[24] = second compound 1 µM, first compound 1 µM
[25] = second compound 3.16 µM, first compound 0.00316 µM
[26] = second compound 3.16 µM, first compound 0.01 µM
[27] = second compound 3.16 µM, first compound 0.0316 µM
[28] = second compound 3.16 µM, first compound 0.1 µM
[29] = second compound 3.16 µM, first compound 0.316 µM
[30] = second compound 3.16 µM, first compound 1 µM
[31] = second compound 10 µM, first compound 0.00316 µM
[32] = second compound 10 µM, first compound 0.01 µM
[33] = second compound 10 µM, first compound 0.0316 µM
[34] = second compound 10 µM, first compound 0.1 µM
[35] = second compound 10 µM, first compound 0.316 µM
[36] = second compound 10 µM, first compound 1 µM
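Also: spheroids exposed to compounds for seven days before readout.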
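For viability, T/C in this document: 100% = DMSO vehicle control viability.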

CCc1c2c(nc3ccc(O)cc13)-c1cc3c(c(=O)n1C2)COC(=O)[C@]3(O)CC + Cc1cccc(N(C)C(=O)C2C(O)CCN2c2nc(C)cc(C(F)(F)F)c2C#N)c1
IC50 (second compound 0.0316 µM): 101 nM
IC50 (second compound 0.1 µM): 69.4 nM
IC50 (second compound 0.316 µM): 84.7 nM
IC50 (second compound 1 µM): 62.7 nM
IC50 (second compound 3.16 µM): 59.9 nM
IC50 (second compound 10 µM): 125 nM
viability, T/C [1]: 59.4%
viability, T/C [2]: 58.6%
viability, T/C [3]: 52.8%
viability, T/C [4]: 52%
viability, T/C [5]: 34.2%
viability, T/C [6]: 21.2%
viability, T/C [7]: 71.4%
viability, T/C [8]: 60.8%
viability, T/C [9]: 57.9%
viability, T/C [10]: 46.9%
viability, T/C [11]: 37.7%
viability, T/C [12]: 25%
viability, T/C [13]: 60.1%
viability, T/C [14]: 66.2%
viability, T/C [15]: 55%
viability, T/C [16]: 49.6%
viability, T/C [17]: 32.6%
viability, T/C [18]: 17.6%
viability, T/C [19]: 65.1%
viability, T/C [20]: 61.7%
viability, T/C [21]: 60.8%
viability, T/C [22]: 41.3%
viability, T/C [23]: 33.6%
viability, T/C [24]: 20.5%
viability, T/C [25]: 71.6%
viability, T/C [26]: 59.7%
viability, T/C [27]: 54.8%
viability, T/C [28]: 45.3%
viability, T/C [29]: 40.6%
viability, T/C [30]: 22.4%
viability, T/C [31]: 79.8%
viability, T/C [32]: 70.5%
viability, T/C [33]: 62.1%
viability, T/C [34]: 49.1%
viability, T/C [35]: 44.9%
viability, T/C [36]: 13.5%

CNCc1ccc(-c2[nH]c3cc(F)cc4c3c2CCNC4=O)cc1 + Cc1cccc(N(C)C(=O)C2C(O)CCN2c2nc(C)cc(C(F)(F)F)c2C#N)c1
IC50 (second compound 0.0316 µM): > 10000 nM
IC50 (second compound 0.1 µM): > 10000 nM
IC50 (second compound 0.316 µM): > 10000 nM
IC50 (second compound 1 µM): > 10000 nM
IC50 (second compound 3.16 µM): > 10000 nM
IC50 (second compound 10 µM): > 10000 nM
viability, T/C [3]: 91.1%
viability, T/C [4]: 97.6%
viability, T/C [5]: 93%
viability, T/C [6]: 90.3%
viability, T/C (second compound 0.0316 µM, first compound 3.16 µM): 93.4%
viability, T/C (second compound 0.0316 µM, first compound 10 µM): 82.7%
viability, T/C [9]: 98.4%
viability, T/C [10]: 95.7%
viability, T/C [11]: 93.8%
viability, T/C [12]: 104%
viability, T/C (second compound 0.1 µM, first compound 3.16 µM): 89%
viability, T/C (second compound 0.1 µM, first compound 10 µM): 81.6%
viability, T/C [15]: 91.8%
viability, T/C [16]: 92%
viability, T/C [17]: 94.2%
viability, T/C [18]: 90.6%
viability, T/C (second compound 0.316 µM, first compound 3.16 µM): 94.9%
viability, T/C (second compound 0.316 µM, first compound 10 µM): 75.2%
viability, T/C [21]: 92.6%
viability, T/C [22]: 83.6%
viability, T/C [23]: 89.5%
viability, T/C [24]: 97.5%
viability, T/C (second compound 1 µM, first compound 3.16 µM): 96.9%
viability, T/C (second compound 1 µM, first compound 10 µM): 80.9%
viability, T/C [27]: 98.7%
viability, T/C [28]: 95.3%
viability, T/C [29]: 86.8%
viability, T/C [30]: 84.2%
viability, T/C (second compound 3.16 µM, first compound 3.16 µM): 107%
viability, T/C (second compound 3.16 µM, first compound 10 µM): 88.6%
viability, T/C [33]: 106%
viability, T/C [34]: 98.6%
viability, T/C [35]: 105%
viability, T/C [36]: 102%
viability, T/C (second compound 10 µM, first compound 3.16 µM): 107%
viability, T/C (second compound 10 µM, first compound 10 µM): 93.3%

COc1cccc(OCCCN)c1-c1cc(Nc2cnc(C#N)cn2)n[nH]1 + Cc1cccc(N(C)C(=O)C2C(O)CCN2c2nc(C)cc(C(F)(F)F)c2C#N)c1
IC50 (second compound 0.0316 µM): 71.6 nM
IC50 (second compound 0.1 µM): 75.8 nM
IC50 (second compound 0.316 µM): 30.2 nM
IC50 (second compound 1 µM): 77.3 nM
IC50 (second compound 3.16 µM): 92.7 nM
IC50 (second compound 10 µM): 146 nM
viability, T/C [1]: 84.8%
viability, T/C [2]: 70.7%
viability, T/C [3]: 61.9%
viability, T/C [4]: 46.8%
viability, T/C [5]: 33.9%
viability, T/C [6]: 35%
viability, T/C [7]: 95.5%
viability, T/C [8]: 81.7%
viability, T/C [9]: 68.5%
viability, T/C [10]: 40.8%
viability, T/C [11]: 39.7%
viability, T/C [12]: 30.7%
viability, T/C [13]: 86.9%
viability, T/C [14]: 81.8%
viability, T/C [15]: 48.2%
viability, T/C [16]: 45.7%
viability, T/C [17]: 40.4%
viability, T/C [18]: 35.4%
viability, T/C [19]: 91.4%
viability, T/C [20]: 82.9%
viability, T/C [21]: 51.2%
viability, T/C [22]: 51.4%
viability, T/C [23]: 39.5%
viability, T/C [24]: 29.1%
viability, T/C [25]: 91.5%
viability, T/C [26]: 77%
viability, T/C [27]: 47.1%
viability, T/C [28]: 60.2%
viability, T/C [29]: 41.1%
viability, T/C [30]: 31.8%
viability, T/C [31]: 88.3%
viability, T/C [32]: 83.5%
viability, T/C [33]: 65.8%
viability, T/C [34]: 51.7%
viability, T/C [35]: 46.6%
viability, T/C [36]: 47.5%

Cn1ncnc1[C@H]1c2n[nH]c(=O)c3cc(F)cc(c23)N[C@@H]1c1ccc(F)cc1 + Cc1cccc(N(C)C(=O)C2C(O)CCN2c2nc(C)cc(C(F)(F)F)c2C#N)c1
IC50 (second compound 0.0316 µM): > 100 nM
IC50 (second compound 0.1 µM): > 100 nM
IC50 (second compound 0.316 µM): > 100 nM
IC50 (second compound 1 µM): > 100 nM
IC50 (second compound 3.16 µM): > 100 nM
IC50 (second compound 10 µM): > 100 nM
viability, T/C (second compound 0.0316 µM, first compound 0.000316 µM): 99.2%
viability, T/C (second compound 0.0316 µM, first compound 0.001 µM): 101%
viability, T/C [1]: 93.4%
viability, T/C [2]: 78%
viability, T/C [3]: 74.4%
viability, T/C [4]: 73.7%
viability, T/C (second compound 0.1 µM, first compound 0.000316 µM): 96.3%
viability, T/C (second compound 0.1 µM, first compound 0.001 µM): 96.3%
viability, T/C [7]: 96.9%
viability, T/C [8]: 86.6%
viability, T/C [9]: 82.9%
viability, T/C [10]: 76.7%
viability, T/C (second compound 0.316 µM, first compound 0.000316 µM): 95.7%
viability, T/C (second compound 0.316 µM, first compound 0.001 µM): 98.3%
viability, T/C [13]: 94.2%
viability, T/C [14]: 81.1%
viability, T/C [15]: 72.8%
viability, T/C [16]: 64.2%
viability, T/C (second compound 1 µM, first compound 0.000316 µM): 98.1%
viability, T/C (second compound 1 µM, first compound 0.001 µM): 98.6%
viability, T/C [19]: 88.6%
viability, T/C [20]: 84.8%
viability, T/C [21]: 83%
viability, T/C [22]: 74%
viability, T/C (second compound 3.16 µM, first compound 0.000316 µM): 109%
viability, T/C (second compound 3.16 µM, first compound 0.001 µM): 96.8%
viability, T/C [25]: 94.8%
viability, T/C [26]: 84.5%
viability, T/C [27]: 81.8%
viability, T/C [28]: 69.2%
viability, T/C (second compound 10 µM, first compound 0.000316 µM): 103%
viability, T/C (second compound 10 µM, first compound 0.001 µM): 100%
viability, T/C [31]: 98.4%
viability, T/C [32]: 90.8%
viability, T/C [33]: 91.3%
viability, T/C [34]: 80.6%
